Data: patent publication US10533034B2, “Human iNKT cell activation using glycolipids” (ACADEMIA SINICA, priority 2014, dated 2020)

Key:
Vα24+/Vβ11+ iNKT TCR = Vα24+/Vβ11+ iNKT TCR (Homo sapiens, UniProt A0A075B6N4+A0A0B4J240+P15813); assay: Binding avidity of hCD1d-loaded glycolipids with Vα24+ iNKT cells (ternary interaction); details: for Kd: in complex with hCD1d, Scatchard transformation, read-out: KD of ternary complex, hCD1d-glycolipid toward Vα24+/Vβ11+ iNKT TCR
Method: (3A) DN3A4-1.2 Vα14+ iNKT hybridoma cells and (3B) 7DW8-5-expanded Vα24^+ iNKT cells were incubated with various concentrations of the indicated dimeric mCD d-glycolipid and hCD1d-glycolipid complexes for 30 min at 4° C., respectively. The level of bound complexes at the indicated concentration was detected by anti-mIgG1 secondary antibody and analyzed by flow cytometry. The relationship between the binding percentage and the concentration of CD1ddi-glycolipids complex was plotted in mice (3A) and humans (3B). KD values in mice (3C) and humans (3D) were calculated from Scatchard transformation of the plot (3A) and 3B), respectively. Assay was performed in duplicates. Binding avidity of human CD1d-glycolipid complexes to Vα24^+ iNKT cells expanded by 7DW8-5 at 100 ng/ml was determined as described previously.^19 Next, we measured the ternary interaction between CD1d-glcolipid complex and the iNKT TCR in mice and humans. Different concentrations of mCD1d^di-glycolipid and hCD1d^di-glycolipid complexes were incubated with fixed amounts of DN3A4-1.2 murine iNKT hybridoma cells and human Vα24+/Vβ11^+ iNKT cells, respectively. The level of bound complexes at the indicated concentration was detected by anti-mIgG1 secondary antibody and analyzed by flow cytometry (FIGS. 3A and 3B). The KD of the ternary complex was calculated from the Scatchard transformation of the plots in FIGS. 3A and 3B using GraphPad Prism software. […] This was consistent with the observation that higher percentages of C1-pulsed splenocytes were stained by the mCD1d-7DW8-5 complex (36.2±5.0%) than mCD1d-7DW8-5-Glc complex (17.1±0.8%) (FIG. 11).

C1-pulsed splenocytes = assay: CD1d dimer staining of in vivo C1-pulsed splenocytes; format: binding, B6 WT mice; details: CD3+/CD45R− gated; 3 days after C1 1 μg/mouse
Method: B6 WT splenocytes (n=3) were harvested 3 days after injection with C1 (1 μg/mouse) and stained with CD3, CD45R and the indicated dimer complex conjugated with RPE for 1 hr at 4 degrees Celsius. (11A) CD3+/CD45R− cells were gated to analyze the dimer staining. (11B) unloaded dimer was used as the control. (11C) mCD1d dimer loaded with 7DW8-5-Glc stained 17.1±0.8% of C1-pulsed splenocytes. (11D) mCD1d dimer loaded with 7DW8-5 stained 36.2±5.0% of C1-pulsed splenocytes.

Jα18 KO mice = assay: Murine serum cytokine/chemokine secretion after i.v. glycolipid, Jα18 knockout mice; format: in vivo; details: 1 μg/mouse; sera 2 and 18 hr
Method: (§1) B6 wild type and Jα18 knockout mice were i.v. injected with the indicated glycolipids (1 μg/mouse) or vehicle. Sera collected at 2 h and 18 h post-injection were analyzed for cytokines like IL-2 (7A), IL-6 (7B), GM-CSF (7C) and TNFα (7D) as well as chemokines such as IP-10 (7E), MIG (7F), KC (7G) and MCP-1 (7H). Only MIG peaked at 18 hr post-injection, while the others peaked at 2 hr post-injection.
(§2) All the glycolipids were dissolved in 100% DMSO at a concentration of 1-2 mg/ml. For in vivo experiments, all compounds were diluted to 10 μg/ml in saline just before injection of 100 μl diluted glycolipid or 100 μl 1% DMSO into mice. Pathogen-free C57BL/6 female mice aged 6-12 weeks were obtained from the National Laboratory Animal Center (Taipei, Taiwan). Jα18 knockout (KO) B6 mice were the gifts from Dr. Masaru Taniguchi (RIKEN Research Center for Allergy and Immunology, Yokohama, Japan). All the mice were maintained in pathogen free vivarium of Institute of Cellular and Organismic Biology, Academia Sinica (Taipei, Taiwan).
(§3) B6 WT or Jα18 KO mice were intravenously injected with vehicle or glycolipids at 0.1 or 1 μg/mouse. Serum was collected at 2 and 18 h after injection for measurement of cytokines/chemokines by Beadlyte® Mouse Cytokine kit (Millipore, N.Y.) and read by a Luminex® 200™ system (Luminex, Austin, Tex.).

[1] = tested on: B6 Jα18 KO mice splenocytes; assay: FACS analyses of Jα18 KO mouse immune cells after glycolipid stimulation; format: in vivo; details: 1 μg/mouse i.v.; 3 days
Method: B6 Jα18 KO mice treated with the indicated glycolipid (1 μg/mouse) or vehicle (% DMSO in PBS) were sacrificed at 72 hr post-injection and their splenocytes were subjected to FACS analysis. (9A) The total splenocytes, (9B) total CD11Chi cells, (9C) CD11Chi/CD80+ cells, (9D) CD11Chi/CD86+ cells, (9E) CD4^+ T cells and (9F) CD8^+ T cells (student t test: *, p<0.05, as compared to D).
B6 WT or Jα18 KO mice treated with specific glycolipid (1 μg/mouse) or vehicle (1% DMSO in PBS) were sacrificed at 72 hr post-injection and their spleens were harvested. After pressing spleens through 70 um strainer and lysis of erythrocytes, the nucleated cells were resuspended in PBS buffer containing azide (0.05%) and stained with antibodies recognizing the indicated cell surface antigens for 30 min at 4° C. After washing, the splenocytes were subjected to FACS analysis. The antibodies against CD3, CD4, CD8α, CD11c, CD80, and CD86 were obtained from BD Bioscience-Pharmingen.
Unexpectedly, we also observed that 7DW8-5-Glc induced chemokines in Jα18 KO mice (FIG. 7).

B6 wild type mice = assay: Murine serum cytokine/chemokine secretion after i.v. glycolipid, wild type mice; format: in vivo, mouse
Method: B6 wild type mice were i.v. injected with 7DW8-5-Glc at 0.1 or 1 μg/mouse. Sera collected at 2 h and 18 h post-injection were analyzed for chemokine secretions such as IP-10 (6A), KC (6B), MCP-1 (6C), and MIP-1α (6D). These chemokines peaked at 2 hr post-injection.
as §1, §2, §3
Previously, 0.1 μg/mouse of 7DW8-5 was sufficient for immune stimulation,^19 but higher dosage (1 μg/mouse) was required for the glucose analog 7DW8-5-Glc to induce immune responses (FIG. 6). Thus, the biological activities of newly synthesized glycolipids were tested in B6 mice 2 and 18 hr after i.v. injection of glycolipids at 1 μg/mouse. […] As compared to GSLs with αGlc, GSLs with αGal induced higher levels of cytokines and chemokines, including IFN-γ, IL-2, IL-4, IL-6, GM-CSF, TNFα and IP-10.

Vα24+/Vβ11+ iNKT TCR, sequence (P01848 whole entry): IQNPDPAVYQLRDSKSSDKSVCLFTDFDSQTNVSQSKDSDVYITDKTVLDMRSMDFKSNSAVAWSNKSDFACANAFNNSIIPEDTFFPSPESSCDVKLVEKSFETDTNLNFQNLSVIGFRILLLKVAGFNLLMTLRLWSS
Vα24+/Vβ11+ iNKT TCR, sequence (A0A075B6N4 22-114): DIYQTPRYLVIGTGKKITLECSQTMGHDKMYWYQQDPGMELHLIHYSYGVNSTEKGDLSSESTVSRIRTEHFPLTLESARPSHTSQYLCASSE
Vα24+/Vβ11+ iNKT TCR, sequence (P61769 21-119, further chain): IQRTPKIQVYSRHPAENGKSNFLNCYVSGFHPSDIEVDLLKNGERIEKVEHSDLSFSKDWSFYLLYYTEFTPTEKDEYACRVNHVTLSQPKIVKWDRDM
Vα24+/Vβ11+ iNKT TCR, sequence (A0A0B4J240 22-114): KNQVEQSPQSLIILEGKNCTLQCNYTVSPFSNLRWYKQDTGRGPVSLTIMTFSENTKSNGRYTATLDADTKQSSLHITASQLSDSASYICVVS
Vα24+/Vβ11+ iNKT TCR, sequence (P15813 20-301): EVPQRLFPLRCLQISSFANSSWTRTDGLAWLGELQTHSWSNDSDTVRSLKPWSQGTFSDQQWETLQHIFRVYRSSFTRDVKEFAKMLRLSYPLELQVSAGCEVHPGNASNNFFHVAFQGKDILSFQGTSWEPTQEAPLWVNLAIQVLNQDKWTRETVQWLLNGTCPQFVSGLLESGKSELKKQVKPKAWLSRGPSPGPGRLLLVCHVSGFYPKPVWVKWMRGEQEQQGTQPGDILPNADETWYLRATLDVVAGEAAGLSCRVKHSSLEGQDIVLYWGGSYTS

SMILES | Kd (Vα24+/Vβ11+ iNKT TCR) | percentage of C1-pulsed splenocytes stained by mCD1d dimer loaded with glycolipid (C1-pulsed splenocytes) | induction of cytokines in Jα18 KO mice (Jα18 KO mice) | total splenocytes, CD4+ T and CD8+ T cells in Jα18 KO mice [1] | levels of KC, MCP-1, IP-10 and MIG chemokines induced (B6 wild type mice; 1 μg/mouse i.v., 2 and 18 hr) | levels of Th1 and Th2 cytokines induced (B6 wild type mice; 1 μg/mouse i.v., 2 and 18 hr) | dosage required to induce immune responses (B6 wild type mice; i.v., sera 2 h and 18 h) | secretion of chemokines KC, MCP-1, IP-10 and MIG in Jα18 KO mice (Jα18 KO mice) | expansion/activation of CD11chi monocyte-derived DCs in Jα18 KO mice [1] | staining of human iNKT cells with CD1d-glycolipid dimer (Vα24+/Vβ11+ iNKT TCR) | induction of serum cytokines/chemokines (B6 wild type mice; 1 μg/mouse i.v., 2 and 18 hr)
CCCCCCCCCCCCCC[C@@H](O)[C@@H](O)[C@H](CO[C@H]1O[C@H](CO)[C@H](O)[C@H](O)[C@H]1O)NC(=O)CCCCCCCCCCc1ccc(F)cc1 [Compound 7DW8-5, reference compound] | 0.777 ± 0.022 nM | 36.2±5.0% | no induction | No significant differences | – | – | – | – | – | – | –
CC[C@@H](O)[C@@H](O)[C@H](CO[C@H]1OC(CO)[C@@H](O)C(O)C1O)NC(=O)Cc1ccc(F)cc1 (stereo partly drawn) [Compound 7DW8-5-Glc] | 0.481 ± 0.008 nM | 17.1±0.8% | no induction | No significant differences | relatively high levels | very low levels | 1 μg/mouse | triggered the secretion | significantly expanded and activated | – | –
CCCCCCCCCCCCCC[C@@H](O)[C@@H](O)[C@H](CO[C@H]1O[C@H](CO)[C@@H](O)[C@H](O)[C@@H]1O)NC(=O)CCCCCCCCCCc1ccc(F)cc1 [Compound 7DW8-5-Man] | – | – | – | – | – | – | – | – | – | lack of staining | failed to induce any cytokines/chemokines
